In PMC4850424 (Molecular Cell, 2016):

Columns and labels:
testis-derived Brdt = experiment: JQ1 inhibition of Brdt binding to H4 peptides; parameters: species or system mouse; settings: JQ1 added to extract prior to peptide pull-down; Figure 6C lower left
[1] = system: histone octamers / chromatin (H4K5 and H4K8); settings: [14C] butyryl-CoA, in vitro; ref Chen et al., 2007; cited from earlier work

For `Cc1sc2c(c1C)C(c1ccc(Cl)cc1)=N[C@@H](CC(=O)OC(C)(C)C)c1nnc(C)n1-2` [JQ1], the “inhibition of Brdt binding to H4K5acK8bu peptide” value (testis-derived Brdt) was “abolished the binding” and the “inhibition of Brdt binding to acetylated H4 peptide” value (testis-derived Brdt) was “abolished the binding”.
For “CREB binding protein (CBP): histone acyltransferase”, the “lysine butyrylation of core histones” value [1] is listed as “can catalyze lysine butyrylation”.
For “p300: Flag tagged human p300 (324-2094), recombinant from baculovirus-infected insect cells”, the “lysine butyrylation of core histones” value [1] is listed as “can catalyze lysine butyrylation”.
